# Article PMC8896928, “Preparation, Characterization, and Preliminary Imaging Study of [^188Re]Re-Ibandronate as a Novel Theranostic Radiopharmaceutical for Bone Metastasis” (Contrast Media & Molecular Imaging, 2022)
# Several values for one entry are separate records, joined by “and”; a condition that tells them apart may be missing. Equal values may be shown once. Read-outs that look alike come from different tables or passages of the source.
# What was measured:
# [1] = Biodistribution in normal mice; format: in vivo, Kunming mice
# Description: Twenty Kunming mice (originated from Swiss albino mice and introduced into Kunming, China.) were randomly divided into five groups (equal number of males and females). Each group was injected with 3.7 MBq [^188Re]Re-IBA. […] The blood and important tissue and organ samples were collected to measure the radioactivity count by γ counter. Following the time attenuation correction, the percentage injection dose rate per gram of tissue (%ID/g) was calculated at each time point. The result is expressed as mean ± standard deviation ( χ¯ ± s). The in vivo distribution of [^188Re]ReO4^− was studied using the aforementioned method.
# fresh human plasma = details: 37°C, 2 h
# Text: The results are expressed as mean ± standard deviation ( χ¯ ± s).
# [2] = 37°C
# Description: The RCP of [^188Re]Re-IBA was determined by PC. Acetone and 0.9% NaCl were used as the eluents. A TLC scanner was used to measure the distribution of radioactivity on the PC strips. The RCP of [^188Re]Re-IBA was calculated from the peak area measurements as follows: […]
# Freshly prepared [^188Re]Re-IBA was incubated in 0.9% NaCl and fresh human serum at 37°C. The RCP of the tubes was determined by PC at 1 h, 3 h, 6 h, 12 h, and 24 h. The experiment was repeated thrice. The results are expressed as mean ± standard deviation ( χ¯ ± s).
# Kunming mice = test system: Kunming mice
# Description: Sixteen Kunming mice were randomly divided into four groups (equal number of males and females): normal control group and low-, middle-, and high-dose [^188Re]Re-IBA groups. The control group was injected with 0.9% NaCl, and the experimental groups were injected with [^188Re]Re-IBA solution of 3.7 MBq, 18.5 MBq, and 37 MBq, respectively. The body weight and general condition of the mice in each group were measured. After 4 weeks, the blood of the mice in each group was drawn for routine blood examination and liver and kidney function. A pathological examination of important tissue and organs was performed.
# SPSS 26.0 was used for statistical analysis, and the quantitative data were expressed as mean ± standard deviation ( χ¯ ± s). In the toxicity test, repeated-measures analysis of variance was used to compare the body weight of mice in each group. P < 0.05 was considered statistically significant.
compound,measurement,setting,value
CCCCCN(C)CCC1(O)P(=O)(O)[O][188Re]2([OH])([OH])([O]P1(=O)O)[O]P(=O)(O)C(O)(CCN(C)CCCCC)P(=O)(O)[O]2 (stereo not shown) [[^188Re]Re-IBA],%ID/g Blood,[1]; 1 h,1.869 ± 0.665 %ID/g
same,%ID/g Brain,[1]; 1 h,0.072 ± 0.023 %ID/g
same,%ID/g Femur,[1]; 1 h,5.989 ± 1.680 %ID/g
same,%ID/g Gonad,[1]; 1 h,0.878 ± 0.426 %ID/g
same,%ID/g Heart,[1]; 1 h,0.488 ± 0.179 %ID/g
same,%ID/g Kidney,[1]; 1 h,5.894 ± 1.648 %ID/g
same,%ID/g Liver,[1]; 1 h,1.100 ± 0.165 %ID/g
same,%ID/g Lung,[1]; 1 h,1.297 ± 0.661 %ID/g
same,%ID/g Muscle,[1]; 1 h,0.550 ± 0.251 %ID/g
same,%ID/g Small intestine,[1]; 1 h,0.898 ± 0.494 %ID/g
same,%ID/g Spleen,[1]; 1 h,0.952 ± 0.336 %ID/g
same,%ID/g Stomach,[1]; 1 h,2.928 ± 0.851 %ID/g
same,%ID/g Thyroid gland,[1]; 1 h,0.594 ± 0.201 %ID/g
same,Femur/heart radioactivity ratio,[1]; 1 h,12.278
same,Femur/liver radioactivity ratio,[1]; 1 h,5.443
same,Femur/muscle radioactivity ratio,[1]; 1 h,10.880
same,%ID/g Blood,[1]; 3 h,0.785 ± 0.220 %ID/g
same,%ID/g Brain,[1]; 3 h,0.056 ± 0.010 %ID/g
same,%ID/g Femur,[1]; 3 h,7.105 ± 1.901 %ID/g
same,%ID/g Gonad,[1]; 3 h,0.611 ± 0.095 %ID/g
same,%ID/g Heart,[1]; 3 h,0.293 ± 0.118 %ID/g
same,%ID/g Kidney,[1]; 3 h,3.140 ± 0.799 %ID/g
same,%ID/g Liver,[1]; 3 h,0.794 ± 0.133 %ID/g
same,%ID/g Lung,[1]; 3 h,0.784 ± 0.196 %ID/g
same,%ID/g Muscle,[1]; 3 h,0.344 ± 0.143 %ID/g
same,%ID/g Small intestine,[1]; 3 h,0.597 ± 0.214 %ID/g
same,%ID/g Spleen,[1]; 3 h,0.475 ± 0.135 %ID/g
same,%ID/g Stomach,[1]; 3 h,2.801 ± 0.560 %ID/g
same,%ID/g Thyroid gland,[1]; 3 h,0.449 ± 0.171 %ID/g
same,Femur/heart radioactivity ratio,[1]; 3 h,24.214
same,Femur/liver radioactivity ratio,[1]; 3 h,8.949
same,Femur/muscle radioactivity ratio,[1]; 3 h,20.664
same,%ID/g Blood,[1]; 6 h,0.496 ± 0.207 %ID/g
same,%ID/g Brain,[1]; 6 h,0.045 ± 0.011 %ID/g
same,%ID/g Femur,[1]; 6 h,7.724 ± 2.292 %ID/g
same,%ID/g Gonad,[1]; 6 h,0.303 ± 0.141 %ID/g
same,%ID/g Heart,[1]; 6 h,0.199 ± 0.049 %ID/g
same,%ID/g Kidney,[1]; 6 h,2.763 ± 0.731 %ID/g
same,%ID/g Liver,[1]; 6 h,0.526 ± 0.087 %ID/g
same,%ID/g Lung,[1]; 6 h,0.506 ± 0.104 %ID/g
same,%ID/g Muscle,[1]; 6 h,0.220 ± 0.124 %ID/g
same,%ID/g Small intestine,[1]; 6 h,0.608 ± 0.192 %ID/g
same,%ID/g Spleen,[1]; 6 h,0.296 ± 0.108 %ID/g
same,%ID/g Stomach,[1]; 6 h,1.741 ± 0.368 %ID/g
same,%ID/g Thyroid gland,[1]; 6 h,0.399 ± 0.082 %ID/g
same,Femur/heart radioactivity ratio,[1]; 6 h,38.835
same,Femur/liver radioactivity ratio,[1]; 6 h,14.694
same,Femur/muscle radioactivity ratio,[1]; 6 h,35.182
same,%ID/g Blood,[1]; 24 h,0.058 ± 0.013 %ID/g
same,%ID/g Brain,[1]; 24 h,0.024 ± 0.013 %ID/g
same,%ID/g Femur,[1]; 24 h,6.177 ± 2.163 %ID/g
same,%ID/g Gonad,[1]; 24 h,0.059 ± 0.032 %ID/g
same,%ID/g Heart,[1]; 24 h,0.045 ± 0.012 %ID/g
same,%ID/g Kidney,[1]; 24 h,0.913 ± 0.173 %ID/g
same,%ID/g Liver,[1]; 24 h,0.122 ± 0.042 %ID/g
same,%ID/g Lung,[1]; 24 h,0.138 ± 0.037 %ID/g
same,%ID/g Muscle,[1]; 24 h,0.051 ± 0.020 %ID/g
same,%ID/g Small intestine,[1]; 24 h,0.078 ± 0.013 %ID/g
same,%ID/g Spleen,[1]; 24 h,0.189 ± 0.052 %ID/g
same,%ID/g Stomach,[1]; 24 h,0.098 ± 0.036 %ID/g
same,%ID/g Thyroid gland,[1]; 24 h,0.115 ± 0.036 %ID/g
same,Femur/heart radioactivity ratio,[1]; 24 h,137.083
same,Femur/liver radioactivity ratio,[1]; 24 h,50.645
same,Femur/muscle radioactivity ratio,[1]; 24 h,121.910
same,%ID/g Blood,[1]; 48 h,0.031 ± 0.009 %ID/g
same,%ID/g Brain,[1]; 48 h,0.009 ± 0.002 %ID/g
same,%ID/g Femur,[1]; 48 h,5.239 ± 2.029 %ID/g
same,%ID/g Gonad,[1]; 48 h,0.029 ± 0.009 %ID/g
same,%ID/g Heart,[1]; 48 h,0.019 ± 0.010 %ID/g
same,%ID/g Kidney,[1]; 48 h,0.399 ± 0.153 %ID/g
same,%ID/g Liver,[1]; 48 h,0.038 ± 0.020 %ID/g
same,%ID/g Lung,[1]; 48 h,0.040 ± 0.020 %ID/g
same,%ID/g Muscle,[1]; 48 h,0.016 ± 0.005 %ID/g
same,%ID/g Small intestine,[1]; 48 h,0.033 ± 0.010 %ID/g
same,%ID/g Spleen,[1]; 48 h,0.046 ± 0.009 %ID/g
same,%ID/g Stomach,[1]; 48 h,0.047 ± 0.019 %ID/g
same,%ID/g Thyroid gland,[1]; 48 h,0.070 ± 0.019 %ID/g
same,Femur/heart radioactivity ratio,[1]; 48 h,270.814
same,Femur/liver radioactivity ratio,[1]; 48 h,136.914
same,Femur/muscle radioactivity ratio,[1]; 48 h,325.483
same,PPB (plasma protein binding rate),fresh human plasma,79.8 ± 0.71%
same,"RCP, in vitro stability","[2]; 0.9% NaCl, 1 h",98.14 ± 0.2%
same,"RCP, in vitro stability","[2]; 0.9% NaCl, 3 h",97.82 ± 0.6%
same,"RCP, in vitro stability","[2]; 0.9% NaCl, 6 h",96.99 ± 1.3%
same,"RCP, in vitro stability","[2]; 0.9% NaCl, 12 h",95.33 ± 1.1%
same,"RCP, in vitro stability","[2]; 0.9% NaCl, 24 h",91.44% and 91.44 ± 0.8%
same,"RCP, in vitro stability","[2]; human serum, 1 h",99.01 ± 0.5%
same,"RCP, in vitro stability","[2]; human serum, 3 h",98.67 ± 0.9%
same,"RCP, in vitro stability","[2]; human serum, 6 h",98.15 ± 0.8%
same,"RCP, in vitro stability","[2]; human serum, 12 h",96.90 ± 1.4%
same,"RCP, in vitro stability","[2]; human serum, 24 h",93.06% and 93.06 ± 1.6%
same,Pathology of important tissues and organs vs normal control,"Kunming mice; 3.7, 18.5, 37 MBq, 4 weeks",no abnormal pathological changes
same,Routine blood and liver and kidney function examination (mean values),"Kunming mice; 3.7, 18.5, 37 MBq, 4 weeks",within the normal reference range
same,Adverse reactions,"Kunming mice; 3.7, 18.5, 37 MBq, within 4 weeks",no adverse reactions
same,Body weight vs other groups,"Kunming mice; high-dose group 37 MBq, 4 weeks",inhibited the weight gain of mice to a certain extent
same,Body weight vs control group,"Kunming mice; low-dose group 3.7 MBq, 4 weeks",no significant difference in weight
same,Body weight vs control group,"Kunming mice; medium-dose group 18.5 MBq, 4 weeks",no significant difference in weight
